# Assay results published in article PMC4979516, “Quinazoline-based tricyclic compounds that regulate programmed cell death, induce neuronal differentiation, and are curative in animal models for excitotoxicity and hereditary brain disease” (Cell Death Discovery, 2015).
# Entries after “also recorded” stand apart in the source; their conditions may differ.
# B1: NGF: mouse NGF, 2.5S from Promega; classical agent to induce neuronal differentiation of PC12 cells (protein, UniProt P01139 122-241, looked up)
# Beta-nerve growth factor: SSTHPVFHMGEFSVCDSVSVWVGDKTTATDIKGKEVTVLAEVNINNSVFRQYFFETKCRASNPVESGCRGIDSKHWNSYCTTTHTFVKALTTDEKQAAWRFIRIDTACVCVLSRKATRRG
# How the values were obtained:
# [1] = target: T1, 18 kDa translocator protein (TSPO) (Rattus norvegicus, UniProt P16257); experiment: TSPO binding, displacement of [3H]PK 11195 in rat kidney membranes
# T1 construct: 400 μl of homogenized rat kidney membranes (5 mg of homogenate/ml); from tissue; host or cells: rat kidney (homogenized membranes)
# Experimental: After incubation for 60 min at 4 °C, samples were filtered under vacuum over Whatman GF/C filters and washed three times with 5 ml of 50 mM Tris-HCl buffer, pH 7.4. The filters were incubated in CytoScint (MP Biomedicals) and radioactivity was measured after 12 h with a 1600 CA Tri-Carb liquid scintillation analyzer (Packard). Inhibitory constant (Ki) values were calculated by the equation Ki=IC50/(1+C/Kd), where C=[^3H]
# U118MG cells [2] = experiment: LDH cytotoxicity assay, glutamate-induced cell death of U118MG cells; conditions: for Lethal effects of the compound (LDH): compound 10-100 μM by itself or with 35 mM glutamate; for Protection against glutamate-induced cell death (LDH): 35 mM glutamate, compound 10-100 μM, 24 h pretreatment
# Experimental: (1) For U118MG cells, glutamate at a concentration of 35 mM was applied with or without MGV-1. As discussed, glutamate levels in normal healthy brain tissue can average 15 mM, and these levels can be doubled in diseased brain tissue, whereas in cell organelles glutamate levels can be as high as 250 mM (as discussed). […] In more detail, U118MG cells were seeded, 2×10^5 cells per well of 6-well plates and 6×10^3 cells per well of 96-well plates. Twenty-four hours after seeding, U118MG cells were pretreated with MGV-1 (or one of the other compounds) at various concentrations from 0.1 nM–100 μM. Twenty-four hours after the pretreatment, the cells were exposed to 35 mM of glutamate. […] The negative control was vehicle, that is, ethanol with a final concentration of 1%. […] The positive control was exposure to 35 mM of glutamate alone (with 200 μM of glycine).
# Wells of 96-well plates were with 6000 cells per well and treated according the protocol presented above. We used the Cytotoxicity Detection Kit (LDH) (Roche Pharmacuticals) according to the manufacturer’s instructions. When cell plasma membranes are damaged, the cytoplasmic enzyme LDH is released into the medium. The amount of formazan formed is proportional to the amount of LDH released.[77] The resulting color intensity is proportional to the number of damaged cells. Absorbance at 492 nm with reference at 690 nm was measured with the Spectrophotometer Zenyth 200 (Anthos) and the results were calculated and normalized according to the formula presented by the manufacturer.
# R6-2 mice = experiment: R6-2 transgenic mouse model for Huntington disease (lifespan, behavior); assay type: in vivo; conditions: for Week of age until which 50% of treated R6-2 mice were still alive: 7.5 mg/kg s.c. daily 5 days per week, vehicle: 11th week (2-Cl-MGV-1 study), 10th week (2-Cl-MGV-2 study); for Uncontrollable tremor activity of R6-2 mice: 7.5 mg/kg s.c., data not shown; for Effect on behavior and lifespan of R6-2 mice: pilot studies, s.c. daily 5 days per week, MGV-1 15 mg/kg, PK 11195 15 mg/kg, MGV-2 15 and 7.5 mg/kg
# Description: Huntington disease in humans is a hereditary disease including neurodegeneration leading to degradation in motor performance, continual involuntary movements, tremors, cardiovascular and respiratory impairments, and finally leading to death of the patients having the disease.[88] For this study, R6-2 mice (~120 CAG repeats B6CBA-Tg(HDexon1)62 Gpb/3J) mice were used as a transgenic mouse model for Huntington disease. For this purpose, mice obtained from the Jackson Laboratory were bred. In particular, males hemizygous for Tg(HDexon1)62 Gpb, and females from the wild-type background strain B6CBAF1/J, were bred according to the protocol of Jackson Laboratory.
# For tests of drug efficacy, male offspring hemizygous for Tg(HDexon1)62 Gpb were used to determine drug effect on lifespan, motor activity, and general well-being of the animals. Drug treatment for this study consisted of daily (5 continuous days per week) subcutaneous injections in the neck area of mice with 20 μl of: the drug vehicle DMSO (vehicle control), 2-Cl-MGV-1(7.5 mg/kg) and 2-Cl-MGV-2 (7.5 mg/kg). […] Quantities were used according to previous studies regarding TSPO ligands[48] and adapted depending on the findings in the course of the pilot studies. The treatments were given until the animals died a natural death. Behavioral experiments included distance covered in an open field apparatus,[89] freezing,[89] and balance on a rotor-rod.[90] Spontaneous tremor activity was evaluated using a Hamilton–Kinder sensor in a soundproof ventilated apparatus (Kinder Scientific). The assays for locomotor activity, tremors, and body weight were performed on a weekly basis, together with evaluation of the well-being of the mice. Finally, the day of death was noted. As lifespan data were most pronounced, these are presented in the present description of the results. No adverse effects of any of the drug treatments were noted, neither for specific tests, nor for general observations. Importantly, DMSO had no effect by itself as compared with naive mice or saline-injected mice with various behavioral assays.[20]
# [3] = test system: PC12 cells strain #1 (polygonal cells); experiment: Neuronal differentiation (neurite sprouting) of PC12 strain #1; assay type: cell-based, rat; conditions: strain #1, only polygonal cells
# [4] = test system: NeuN expression in PC12 cells strain #3; experiment: Western blot of NeuN in PC12 strain #3; assay type: cell-based, rat; conditions: PC12 strain #3, versus vehicle control
# Experimental: The relative protein levels of TSPO and other proteins related to neurodifferentiation (including β-actin, NeuN, tubulin-3β), were assayed by immunoblotting with the aid electrophoresis through 12% SDS-polyacrylamide gel, according to previously described methods.[71] A priori, general protein levels were measured by the method of Bradford using BSA as a standard.[75] After electrophoresis, the gels were subjected to electrophoretic transfer to nitrocellulose membranes. Then, the membranes were blocked for 1 h in 5% non-fat milk in 62.5 mM sodium phosphate buffer, pH 7.4, containing 100 mM NaCl, and 0.1% (v/v) Tween-20 (PBS-T) and then incubated for 2 h or overnight at 4 °C with the appropriate antibodies: anti-tubulin-3β 1 : 10 000, anti-NeuN 1 : 1000, anti β-actin 1 : 15 000, and anti-TSPO 1 : 10 000.[73] After washing with TBS-T, the membranes were incubated with IgG secondary antibody linked to horseradish peroxidase (anti-rabbit IgG 1 : 20 000, anti-mouse IgG 1 : 10 000, as appropriate, from Jackson Immunologicals, West Grove, PA, USA) in TBS-T at room temperature. Binding of antibodies to the membrane was detected with the EZ-ECL-detection reagent (Biological Industries), using the ImageQuant LAS 4010 apparatus and Totallab Quant quantitative image analysis of Totallab (Newcastle upon Tyne, England).
# U118MG cells [5] = experiment: Mitochondrial membrane potential (JC-1) assay in U118MG cells exposed to glutamate; assay type: cell-based, human; conditions: 25 μM compound, 35 mM glutamate
# Description: JC-1 was used to assay changes in Δψm, as described previously.[71],[79] Owing to charges distributed along JC-1 molecules, they pass unimpaired (charged) mitochondrial membranes and enter the mitochondrial matrix. There the J-molecules form J-aggregates, which emit at 590 nm (orange–red fluorescence). […] The monomers emit at 527 nm (green fluorescence). A decrease in the red–green fluorescence intensity ratio is an indication for mitochondrial depolarization. As a positive control, the proton ionophore carbonyl cyanide m-chlorophenylhydrazone was used as described previously.[71] Cells were collected and prepared for suspension in 10 μg/ml of JC-1 solution in PBS. After incubation at 37 °C for 30 min in the dark, the cells were washed with 0.5 ml of PBS, and the cell suspensions were analyzed with the BD FACSCalibur flow cytometer.
# U118MG cells [6] = experiment: Mitochondrial ROS / cardiolipin oxidation (NAO) assay in U118MG cells exposed to glutamate; assay type: cell-based, human; conditions: 25 μM compound, 35 mM glutamate
# Description: Cardiolipin is present in the inner mitochondrial membrane, at the contact sites with the outer mitochondrial membrane. By application of NAO, we assayed cardiolipin peroxidation as an indication of mitochondrial ROS generation, as described previously.[71] NAO binds with high affinity to non-oxidized cardiolipin in a 2 : 1 ratio, but with less affinity to oxidized cardiolipin, the latter which is reflected by lower levels of green NAO fluorescence.[78] For our study, cells were collected and centrifuged at 1200×g for 5 min, 4 °C. Cell pellets were re-suspended in 0.5 ml of 0.1 μM NAO and incubated for 30 min at 37 °C in the dark. Then, the cells were washed once with 0.5 ml PBS and transferred into 5 ml FALCON FACS tubes and analyzed with the aid of a BD FACSCalibur flow cytometer using CellQuest software (BD Biosciences, Franklin Lakes, NJ, USA).
# PC12 cells = experiment: Neuronal differentiation of PC12 cells, strain not specified; assay type: cell-based, rat; conditions: agent by itself; MGV-1 50 μM
# Experimental: For our newly developed differentiation method by MGV-1 in combination with glutamate, PC12 cells were plated onto poly-L-lysine coated culture plates and Petri dishes at a relatively low density (5.2×10^3 cells/cm^2 for six-well plates and 3.6×10^3 cells/cm^2 for Petri dishes), in DMEM medium containing 8% heat-inactivated FBS and 8% horse serum. […] Exposure to vehicle alone (culture medium with 1% of ethanol) was used as the control.
# The major and determining indication of neural differentiation of PC12 cells is neurite development.[23],[80] […] The number of differentiated cells was determined by visual examination of the captured fields. In particular, a line was drafted at half height of the image and the cell bodies crossed by the line were further analyzed regarding differentiation. […] Cells with at least one identifiable neurite with a length at least equal to the cell body diameter were scored, and their number expressed as a percentage of the total number of cells crossed by said line. In addition, for each of these cells, the length of the longest neurite was determined (using AxioVision Image software, Zeiss). […]
# T1 sequence (P16257 whole entry): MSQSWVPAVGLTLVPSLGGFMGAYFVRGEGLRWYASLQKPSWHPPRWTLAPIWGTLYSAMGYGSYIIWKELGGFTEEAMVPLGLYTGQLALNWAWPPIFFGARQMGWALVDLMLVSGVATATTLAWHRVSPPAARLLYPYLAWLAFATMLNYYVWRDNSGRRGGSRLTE
Molecule,Ki [1],Lethal effects of the compound (LDH) (U118MG cells [2]),Protection against glutamate-induced cell death (LDH) (U118MG cells [2]),also measured
"CN(C)C(=O)Oc1nc(-c2ccccc2Cl)nc2ccccc12 [2-Cl-MGV-1, 2-(2-chlorophenyl)quinazolin-4-yl dimethylcarbamate]",825 ± 315 nM,very little lethality by itself at any concentration; also recorded: shows the least lethal effects when applied just by itself,–,Week of age until which 50% of treated R6-2 mice were still alive (R6-2 mice): 12 week; Uncontrollable tremor activity of R6-2 mice (R6-2 mice): reduction of uncontrollable tremor activity
"CCN(C)C(=O)Oc1nc(-c2ccccc2Cl)nc2ccccc12 [2-Cl-MGV-2, 2-(2-chlorophenyl)quinazolin-4-yl ethyl(methyl)carbamate]",80 ± 11 nM,undesired lethal effect at high concentrations when given just by itself,protects excellently; also recorded: very effective in protecting against glutamate-induced cell death,Week of age until which 50% of treated R6-2 mice were still alive (R6-2 mice): 12 week; Uncontrollable tremor activity of R6-2 mice (R6-2 mice): reduction of uncontrollable tremor activity
"CCN(CC)C(=O)Oc1nc(-c2ccccc2Cl)nc2ccccc12 [2-Cl-MGV-3, 2-(2-chlorophenyl)quinazolin-4-yl diethylcarbamate]",2.6 ± 1 nM,undesired lethal effects at 50 and 100 μM both with and without glutamate exposure,–,–
"N[C@@H](CCC(=O)O)C(=O)O [Glu, Glutamate, reference compound]",–,–,–,Differentiation of PC12 strain #1 by the agent by itself [3]: do not have this effect; Increase of NeuN expression (western blot) [4]: do not enhance NeuN expression significantly
"CCN(C)C(=O)Oc1nc(-c2ccccc2)nc2ccccc12 [MGV-2, 2-phenylquinazolin-4-yl ethyl(methyl)carbamate]",80 ± 11 nM,undesired lethal effects at high concentrations (in particular 100 μM),protect against lethal effects of glutamate; also recorded: already quite effective at 10 μM,"Prevention of collapse of the ΔΨm induced by glutamate (JC-1) (U118MG cells [5]): prevention of the collapse of the ΔΨm; Prevention of cardiolipin oxidation / mitochondrial ROS generation induced by glutamate (NAO) (U118MG cells [6]): prevent cardiolipin oxidation; Effect on behavior and lifespan of R6-2 mice (R6-2 mice): effects reminiscent of those of 2-Cl-MGV-1 and 2-Cl-MGV-2, but less consistent"
"CCN(CC)C(=O)Oc1nc(-c2ccccc2)nc2ccccc12 [MGV-3, 2-phenylquinazolin-4-yl diethylcarbamate]",2.6 ± 1 nM,undesired lethal effects at high concentrations (in particular 100 μM),protect against lethal effects of glutamate; also recorded: already quite effective at 10 μM,–
"CCC(C)N(C)C(=O)c1cc2ccccc2c(-c2ccccc2Cl)n1 (centres unmarked) [PK 11195, N-butan-2-yl-1-(2-chlorophenyl)-N-methylisoquinoline-3-carboxamide, reference compound]",–,–,–,Neuronal differentiation of PC12 cells (neurite outgrowth) (PC12 cells): can differentiate PC12 cells; Effect on behavior and lifespan of R6-2 mice (R6-2 mice): did not show such effects
B1,–,–,–,Differentiation of PC12 strain #1 by the agent by itself [3]: do not have this effect; Increase of NeuN expression (western blot) [4]: do not enhance NeuN expression significantly
